Patent US9278121B2, “Methods of use for an antimicrobial peptide” (priority 2013, dated 2016)
In brackets after ≈: the same amount, converted by molar mass. Read-outs that look alike come from different tables or passages of the source. Each block holds one compound with its values, some of them ahead of it. Where a SMILES comes first, the peptide text is derived from it.

Tests used:
P. acnes [1] = experiment: MIC test by microdilution assay against P. acnes; assay type: cell-based, Propionibacterium acnes
P. acnes [2] = conditions: background, literature; cited from earlier work
[3] = test system: P. aeruginosa (ATCC19660)
[4] = test system: P. aeruginosa derived from patient specimens; experiment: microbe, parasite or virus in culture; conditions: Pseudomonas aeruginosa, read-out: MIC against P. aeruginosa
[5] = test system: P. aeruginosa derived from patient specimens
S. aureus = experiment: microbe, parasite or virus in culture; conditions: Staphylococcus aureus
IL-8 = IL-8 mRNA in P. aeruginosa-infected human corneal epithelial cells; assay type: cell-based; conditions: HCET cells
Method: Human corneal epithelial cells (HCET cells) were exposed to 2×10^4 CFU/mL tympanitis-derived P. aeruginosa either in the presence or absence of antimicrobial peptides. Specifically, HP(2-20) and its derivatives HPA3NT3, ISFGW, and F1AF8A were added to samples at concentration of 3.2 μM. Moreover, a cathilocidin-derived peptide (P5) was also added to some conditions at a concentration of 1.6 μM.

M. furfur = experiment: MIC microdilution assay against M. furfur
P. acnes [6] = experiment: P. acnes-induced inflammatory response in ICR mouse ears; assay type: in vivo; conditions: ICR mice
Method: Right ears of ICR mice (Harlan, Indianapolis, Ind.) were intradermally injected with P. acnes (1×10^8 CFU per 20 μl in Phosphate-Buffered Saline (PBS)) with or without HPA3NT3 peptide (6.4 μM). Left ears of the same mice were injected with 20 μl of PBS. In negative control ICR mice, right ears remained untreated while left ears received intradermal injections of PBS. For histological observation, the cross-sectioned ear was stained with hematoxylin and eosin (Sigma) and viewed on a Zeiss Axioskop2 plus microscope (Carl Zeiss) 24 to 48 hours after injection. The increase in ear thickness was measured using a micro caliper (Mitutoyo 547-400S; MSI Viking Gage, Charleston, S.C.) prior to, and at 24, 48, and 72 hours post injection. The percent difference in ear thickness (right vs. left ear) was determined by an induced ear inflammation ratio (percent difference in the experimental ear divided by the percent difference in the control ears). Ten milligrams of tissue from an 8 mm biopsy that was punched from ears at 24 hours after P. acnes injection was homogenized in 250 μl of sterile PBS with a tissue grinder. CFUs of P. acnes were determined by plating serial dilutions of the homogenate on an agar plate under anaerobic conditions for 48 hours.

in vitro = conditions: human, HK cells (human keratinocytes)
[7] = test system: human keratinocytes (HK cells)
[8] = Cutibacterium acnes, strain ATCC6919, read-out: MIC against P. acnes
[9] = Cutibacterium acnes, strain ATCC11828, read-out: MIC against P. acnes
[10] = clinical isolate Patient #2 (tympanitis)
[11] = clinical isolate Patient #1 (tympanitis)

MIC (P. acnes [1]; [8]): 125 µM (≈ 30.3 µg/mL)
MIC (P. acnes [1]; [9]): 62.5 µM (≈ 15.1 µg/mL)
MIC (P. acnes [1]; Cutibacterium acnes, text summary of Table 1A, strain not named, read-out: MIC value against P. acnes): 62.5 µM (≈ 15.1 µg/mL)
Structure (SMILES): O=C(OOC(=O)c1ccccc1)c1ccccc1 [Benzoyl Peroxide, benzoyl peroxide]
minimal inhibitory concentration (MIC) (P. acnes [2]): 150 µg/mL (≈ 619 µM)

Structure (SMILES): CC[C@H](C)[C@H](NC(=O)CNC(=O)[C@@H](NC(=O)[C@H](CCCCN)NC(=O)[C@H](CCCCN)NC(=O)[C@H](Cc1ccccc1)NC(=O)[C@H](CC(C)C)NC(=O)[C@H](CCCCN)NC(=O)[C@H](Cc1c[nH]c2ccccc12)NC(=O)[C@@H](N)CCCCN)[C@@H](C)CC)C(=O)NCC(=O)N[C@@H](CCCCN)C(=O)N[C@@H](Cc1ccccc1)C(=O)N[C@@H](CC(C)C)C(=O)N[C@@H](Cc1c[nH]cn1)C(=O)N[C@@H](CO)C(=O)N[C@@H](C)C(=O)N[C@@H](CCCCN)C(=O)N[C@@H](CCCCN)C(=O)N[C@@H](Cc1ccccc1)C(N)=O [CA-MA] (H-KWKLFKKIGIGKFLHSAKKF-NH2)
MIC against P. aeruginosa (ATCC19660) [3]: 1.562 µM (≈ 3.76 µg/mL)

Structure (SMILES): CC(C)(O/N=C(\C(=O)N[C@@H]1C(=O)N2C(C(=O)[O-])=C(C[n+]3ccccc3)CS[C@H]12)c1csc(N)n1)C(=O)O [Ceftazidime, ceftazidime]
MIC [4]: > 32 µg/mL
MIC against P. aeruginosa [5, 10]: >32 µg/mL

MIC (S. aureus; ATCC8096, read-out: MIC against S. aureus): > 50 µM
MIC (S. aureus; ATCC25923, read-out: MIC against S. aureus): > 50 µM
MIC (S. aureus; ATCC29213, read-out: MIC against S. aureus): > 50 µM
MIC (P. acnes [1]; [8]): < 0.2 µM
MIC (P. acnes [1]; [9]): < 0.2 µM
Structure (SMILES): CCC[C@@H]1C[C@@H](C(=O)N[C@@H]([C@H]2O[C@H](SC)[C@H](O)[C@@H](O)[C@H]2O)[C@H](C)Cl)N(C)C1 [Clindamycin, clindamycin]

Structure (SMILES): CC[C@H](C)[C@H](NC(=O)[C@H](CCCCN)NC(=O)[C@H](CO)NC(=O)[C@H](Cc1ccccc1)NC(=O)[C@H](CC(C)C)NC(=O)[C@H](CCCCN)NC(=O)[C@H](CCC(=O)O)NC(=O)[C@H](CC(C)C)NC(=O)[C@H](CCCNC(=N)N)NC(=O)[C@H](CCCCN)NC(=O)[C@H](Cc1ccccc1)NC(=O)[C@@H](NC(=O)[C@H](CCCCN)NC(=O)[C@H](CCCCN)NC(=O)[C@H](C)N)C(C)C)C(=O)N[C@@H](CCC(N)=O)C(=O)N[C@@H](CC(N)=O)C(=O)N[C@@H](CC(=O)O)C(=O)N[C@@H](CCCCN)C(N)=O [HP(2-20)] (H-AKKVFKRLEKLFSKIQNDK-NH2; N-terminus and C-terminus assumed)
P. aeruginosa infection induced IL-8 expression (mRNA) (IL-8; 3.2 μM, 24 hours): significantly inhibited
expression of IL-8, peptide without P. aeruginosa (IL-8; data not shown): did not impact the expression of IL-8
MIC against M. furfur (M. furfur): < 0.195 µM
MIC (P. acnes [1]; text summary of Table 1A, strain not named, read-out: MIC value against P. acnes): 0.8 µM (≈ 1.86 µg/mL)

Structure (SMILES): CC[C@H](C)[C@H](NC(=O)[C@H](CCCCN)NC(=O)[C@H](CCCCN)NC(=O)[C@H](Cc1ccccc1)NC(=O)[C@H](CC(C)C)NC(=O)[C@H](CCCCN)NC(=O)[C@H](CCCCN)NC(=O)[C@H](CC(C)C)NC(=O)[C@H](CCCNC(=N)N)NC(=O)[C@H](CCCCN)NC(=O)[C@@H](N)Cc1ccccc1)C(=O)N[C@@H](Cc1c[nH]c2ccccc12)C(=O)N[C@@H](CC(N)=O)C(=O)N[C@@H](Cc1c[nH]c2ccccc12)C(=O)N[C@@H](CCCCN)C(=O)O [HPA3NT3] (H-FKRLKKLFKKIWNWK-OH)
ear thickness or inflammation, peptide alone (histology) (P. acnes [6]): did not affect ear thickness or inflammation
erythema or ear swelling, peptide in uninfected ears (P. acnes [6]): no significant changes
viability at 24 h, 1.6 µM (in vitro): 100%
viability at 24 h, 3.2 µM (in vitro): 100%
viability at 24 h, 6.4 µM (in vitro): 100%
MIC against P. aeruginosa ([5]; derived from patient specimens): 16 µg/mL (≈ 7.75 µM)
Cell viability [7]: 100%
cytotoxicity to HK cells [7]: only minimal cytotoxicity

Structure (SMILES): CC[C@H](C)[C@H](NC(=O)[C@H](CCCCN)NC(=O)[C@H](CCC(=O)O)NC(=O)[C@H](CCCCN)NC(=O)[C@H](CO)NC(=O)[C@H](CCCCN)NC(=O)[C@H](CCCNC(=N)N)NC(=O)[C@H](Cc1ccccc1)NC(=O)[C@H](Cc1ccccc1)NC(=O)[C@H](CC(=O)O)NC(=O)CNC(=O)[C@H](CC(C)C)NC(=O)[C@@H](N)CC(C)C)C(=O)NCC(=O)N[C@@H](CCCCN)C(=O)N[C@@H](CCC(=O)O)C(=O)N[C@@H](Cc1ccccc1)C(=O)N[C@@H](CCCCN)C(=O)N[C@@H](CCCNC(=N)N)C(=O)N[C@H](C(=O)N[C@H](C(=O)N[C@@H](CCC(N)=O)C(=O)N[C@@H](CCCNC(=N)N)C(=O)N[C@H](C(=O)N[C@@H](CCCCN)C(=O)N[C@@H](CC(=O)O)C(=O)N[C@@H](Cc1ccccc1)C(=O)N[C@@H](CC(C)C)C(=O)N[C@@H](CCCNC(=N)N)C(=O)N[C@@H](CC(N)=O)C(=O)N[C@@H](CC(C)C)C(=O)N[C@H](C(=O)N1CCC[C@H]1C(=O)N[C@@H](CCCNC(=N)N)C(=O)N[C@H](C(=O)N[C@@H](CCC(=O)O)C(=O)N[C@@H](CO)C(=O)O)[C@@H](C)O)C(C)C)[C@@H](C)CC)C(C)C)[C@@H](C)CC [LL37]
MIC against P. aeruginosa [5, 11]: >32 µg/mL
MIC against P. aeruginosa [5, 10]: >32 µg/mL

Structure (SMILES): CC[C@H](C)[C@H](NC(=O)CN)C(=O)NCC(=O)N[C@@H](C)C(=O)N[C@H](C(=O)N[C@@H](CC(C)C)C(=O)N[C@@H](CCCCN)C(=O)N[C@H](C(=O)N[C@@H](CC(C)C)C(=O)N[C@H](C(=O)N[C@H](C(=O)NCC(=O)N[C@@H](CC(C)C)C(=O)N1CCC[C@H]1C(=O)N[C@@H](C)C(=O)N[C@@H](CC(C)C)C(=O)N[C@H](C(=O)N[C@@H](CO)C(=O)N[C@@H](Cc1c[nH]c2ccccc12)C(=O)N[C@H](C(=O)N[C@@H](CCCCN)C(=O)N[C@@H](CCCNC(=N)N)C(=O)N[C@@H](CCCCN)C(=O)N[C@@H](CCCNC(=N)N)C(=O)N[C@@H](CCC(N)=O)C(=O)N[C@@H](CCC(N)=O)C(N)=O)[C@@H](C)CC)[C@@H](C)CC)[C@@H](C)O)[C@@H](C)O)C(C)C)C(C)C [Melittin]
MIC against P. aeruginosa [5, 11]: 8 µg/mL (≈ 2.81 µM)
MIC against P. aeruginosa [5, 10]: 16 µg/mL (≈ 5.62 µM)

Structure (SMILES): CN[C@H](CC(C)C)C(=O)N[C@H]1C(=O)N[C@@H](CC(N)=O)C(=O)N[C@H]2C(=O)N[C@H]3C(=O)N[C@H](C(=O)N[C@H](C(=O)O)c4cc(O)cc(O)c4-c4cc3ccc4O)[C@H](O)c3ccc(c(Cl)c3)Oc3cc2cc(c3O[C@@H]2O[C@H](CO)[C@@H](O)[C@H](O)[C@H]2O[C@H]2C[C@](C)(N)[C@H](O)[C@H](C)O2)Oc2ccc(cc2Cl)[C@H]1O [Vancomycin, vancomycin]
MIC [4]: > 32 µg/mL
MIC against P. aeruginosa [5, 10]: >32 µg/mL

MIC against P. aeruginosa (ATCC19660) [3]: 0.78 µM (≈ 1.75 µg/mL)
Structure (SMILES): CC(C)C[C@H](NC(=O)[C@H](CCCCN)NC(=O)[C@H](CCCCN)NC(=O)[C@H](CC(C)C)NC(=O)[C@H](CC(C)C)NC(=O)[C@H](CCCCN)NC(=O)[C@H](CCCCN)NC(=O)[C@H](CC(C)C)NC(=O)[C@H](CC(C)C)NC(=O)[C@@H]1CCCN1C(=O)[C@H](CCCCN)NC(=O)[C@H](CCCCN)NC(=O)[C@H](CC(C)C)NC(=O)[C@H](CC(C)C)NC(=O)[C@H](CCCCN)NC(=O)[C@H](CCCCN)NC(=O)[C@H](Cc1c[nH]c2ccccc12)NC(=O)[C@@H](N)CCCCN)C(N)=O [p5] (H-KWKKLLKKPLLKKLLKKL-NH2; N-terminus and C-terminus assumed)
